Experimental findings from patent EP0320002A1, “Inhalant” (KYORIN SEIYAKU KABUSHIKI KAISHA, priority 1987, dated 1989) are described below.

The nature of this data set: solubility of ibudilast in water. The class given is physicochemical.

Converted amounts (≈) assume the structure as drawn.

Consider `CC(C)C(=O)c1c(C(C)C)nn2ccccc12` [ibudilast, 3-isobutyryl-2-isopropylpyrazolo[1,5-a]pyridine], for which the solubility – broadly, the dissolved amount per volume that the medium holds – was 150 µg/mL (≈ 651 µM).
